Laboratory results as given in USRE39591E1, “6-O-substituted ketolides having antibacterial activity” (Abbott Laboratories, priority 1996, dated 2007).
Converted amounts (≈) assume the structure as drawn.

Test system: up to 32 different microorganisms
Test: in vitro antibacterial activity (MIC), agar dilution on Brain Heart Infusion (BHI) agar with Steers replicator
Format: cell-based
Details: unit assumed
Method in brief: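 Agar dilution, 12 plates/compound; inoc 1:100 (1:10 Micrococcus, Streptococcus); 35°-37° C, 20–24 h. Erythromycin A reference plate plus drug-free growth controls at start and end. Endpoint = no growth/slight haze/sparse colonies.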

Question: How did the MIC (Candida albicans CCH 442 (code TT)) turn out when CC[C@H]1OC(=O)[C@H](C)C(=O)[C@H](C)[C@@H](O[C@@H]2O[C@H](C)C[C@H](N(C)C)[C@H]2O)[C@@](C)(OCc2ccc3ccccc3c2)C[C@@H](C)C(=O)[C@H](C)[C@H]2NC(=O)O[C@@]21C [Example 176, Compound of Formula (IX): L is CO, T is NH, R is —CH2-(2-naphthyl)] was run?
Answer: > 100 mg/L

Question: What about the MIC (Enterococcus faecism ATCC 8043 (code II)) of the same compound?
Answer: 0.2 mg/L

Question: And the MIC (Escherichia coli DC-2 (code SS))?
Answer: > 100 mg/L

Question: What about the MIC (Escherichia coli JUHL (code QQ)) of the same compound?
Answer: > 100 mg/L

Question: And the MIC (Escherichia coli SS (code RR))?
Answer: 3.1 mg/L

Question: What about the MIC (Haemophilis influenzae DILL AMP R (code WW)) of the same compound?
Answer: 64 mg/L

Question: And the MIC (Micrococcus luteus ATCC 4698 (code PP))?
Answer: 0.2 mg/L

Question: And the MIC (Micrococcus luteus ATCC 9341 (code OO))?
Answer: 0.05 mg/L

Question: What about the MIC (Mycobacterium smegmatis ATCC 114 (code UU)) of the same compound?
Answer: 0.78 mg/L

Question: And the MIC (Nocardia Asteroides ATCC9970 (code VV))?
Answer: 1.56 mg/L

Question: What about the MIC (Staphylococcus aureus 1775 (code GG)) of the same compound?
Answer: 100 mg/L

Question: And the MIC (Staphylococcus aureus A5177 (code BB))?
Answer: 0.78 mg/L

Question: What about the MIC (Staphylococcus aureus A-5278 (code CC)) of the same compound?
Answer: > 100 mg/L

Question: And the MIC (Staphylococcus aureus ATCC 6538P (code AA))?
Answer: 1.56 mg/L

Question: And the MIC (Staphylococcus aureus CMX 553 (code FF))?
Answer: 0.78 mg/L

Question: And the MIC (Staphylococcus aureus CMX 642A (code DD))?
Answer: 1.56 mg/L

Question: What about the MIC (Staphylococcus aureus NCTC10649M (code EE)) of the same compound?
Answer: 0.78 mg/L

Question: What about the MIC (Staphylococcus epidermidis 3519 (code HH)) of the same compound?
Answer: 0.78 mg/L

Question: And the MIC (Streptococcus Pneumonia 5649 (code ZZA))?
Answer: 0.25 mg/L

Question: What about the MIC (Streptococcus Pneumonia 5979 (code ZZ)) of the same compound?
Answer: 64 mg/L

Question: What about the MIC (Streptococcus Pneumonia ATCC6303 (code XX)) of the same compound?
Answer: 0.25 mg/L

Question: And the MIC (Streptococcus Pneumonia GYR 1171 (code YY))?
Answer: 0.25 mg/L

Question: And the MIC (Streptococcus agalactiae CMX 508 (code KK))?
Answer: 0.05 mg/L

Question: And the MIC (Streptococcus bovis A-5169 (code JJ))?
Answer: 0.05 mg/L

Question: And the MIC (Streptococcus pyogenes 930 (code MM))?
Answer: 50 mg/L

Question: And the MIC (Streptococcus pyogenes EES61 (code LL))?
Answer: 0.05 mg/L

Question: What about the MIC (Streptococcus pyogenes PIU 2548 (code NN)) of the same compound?
Answer: 0.2 mg/L

Question: Which MIC (organism code AA) does the source give for CC[C@H]1OC(=O)[C@H](C)C(=O)[C@H](C)[C@@H](O[C@@H]2O[C@H](C)C[C@H](N(C)C)[C@H]2O)[C@@](C)(OCCNOCc2ccc([N+](=O)[O-])cc2)C[C@@H](C)C(=O)[C@H](C)[C@H]2NC(=O)O[C@@]21C [Example 238, Compound of Formula (IX): L is CO, T is NH, R is —CH2CH2NHOCH2(4-NO2)-phenyl] here?
Answer: 0.2 mg/L

Question: And the MIC (organism code BB)?
Answer: 0.2 mg/L

Question: And the MIC (organism code CC)?
Answer: > 100 mg/L

Question: What about the MIC (organism code DD) of the same compound?
Answer: 0.39 mg/L

Question: What about the MIC (organism code EE) of the same compound?
Answer: 0.39 mg/L

Question: What about the MIC (organism code FF) of the same compound?
Answer: 0.39 mg/L

Question: What about the MIC (organism code GG) of the same compound?
Answer: > 100 mg/L

Question: And the MIC (organism code HH)?
Answer: 0.39 mg/L

Question: What about the MIC (organism code II) of the same compound?
Answer: 0.05 mg/L

Question: What about the MIC (organism code JJ) of the same compound?
Answer: 0.02 mg/L

Question: And the MIC (organism code KK)?
Answer: 0.02 mg/L

Question: And the MIC (organism code LL)?
Answer: 0.02 mg/L

Question: What about the MIC (organism code MM) of the same compound?
Answer: > 100 mg/L

Question: And the MIC (organism code NN)?
Answer: 0.2 mg/L

Question: What about the MIC (organism code OO) of the same compound?
Answer: 0.05 mg/L

Question: And the MIC (organism code PP)?
Answer: 0.2 mg/L

Question: And the MIC (organism code QQ)?
Answer: 100 mg/L

Question: What about the MIC (organism code RR) of the same compound?
Answer: 0.39 mg/L

Question: What about the MIC (organism code SS) of the same compound?
Answer: > 100 mg/L

Question: And the MIC (organism code TT)?
Answer: > 100 mg/L

Question: And the MIC (organism code UU)?
Answer: 0.2 mg/L

Question: And the MIC (organism code VV)?
Answer: 0.1 mg/L

Question: And the MIC (organism code WW)?
Answer: 8 mg/L

Question: And the MIC (organism code XX)?
Answer: 0.03 mg/L

Question: What about the MIC (organism code YY) of the same compound?
Answer: 0.03 mg/L

Question: And the MIC (organism code ZZ)?
Answer: > 64 mg/L

Question: And the MIC (organism code ZZA)?
Answer: 0.25 mg/L

Question: CCC1OC(=O)C(C)C(=O)C(C)C(OC2OC(C)CC(N(C)C)C2O)C(C)(OCC=Cc2cc3nccnc3cc2[N+](=O)[O-])CC(C)C(=O)C(C)C2NC(=O)OC12C (centres unmarked) [Example 200, R is —CH2CH═CH-(7-nitro-6-quinoxalinyl)] was tested. Which MIC (organism code AA) did it give?
Answer: 0.1 mg/L (≈ 0.123 µM)

Question: And the MIC (organism code BB)?
Answer: 0.1 mg/L (≈ 0.123 µM)

Question: And the MIC (organism code CC)?
Answer: > 100 mg/L

Question: What about the MIC (organism code DD) of the same compound?
Answer: 0.1 mg/L (≈ 0.123 µM)

Question: And the MIC (organism code EE)?
Answer: 0.1 mg/L (≈ 0.123 µM)

Question: And the MIC (organism code FF)?
Answer: 0.1 mg/L (≈ 0.123 µM)

Question: And the MIC (organism code GG)?
Answer: > 100 mg/L

Question: And the MIC (organism code HH)?
Answer: 0.1 mg/L (≈ 0.123 µM)

Question: What about the MIC (organism code II) of the same compound?
Answer: 0.02 mg/L (≈ 0.0246 µM)

Question: What about the MIC (organism code JJ) of the same compound?
Answer: 0.01 mg/L (≈ 0.0123 µM)

Question: And the MIC (organism code KK)?
Answer: 0.02 mg/L (≈ 0.0246 µM)

Question: And the MIC (organism code MM)?
Answer: 50 mg/L (≈ 61.6 µM)

Question: What about the MIC (organism code NN) of the same compound?
Answer: 0.2 mg/L (≈ 0.246 µM)

Question: And the MIC (organism code OO)?
Answer: 0.01 mg/L (≈ 0.0123 µM)

Question: And the MIC (organism code PP)?
Answer: 0.2 mg/L (≈ 0.246 µM)

Question: And the MIC (organism code QQ)?
Answer: 50 mg/L (≈ 61.6 µM)

Question: What about the MIC (organism code RR) of the same compound?
Answer: 0.39 mg/L (≈ 0.48 µM)

Question: And the MIC (organism code SS)?
Answer: 12.5 mg/L (≈ 15.4 µM)

Question: What about the MIC (organism code TT) of the same compound?
Answer: > 100 mg/L

Question: And the MIC (organism code UU)?
Answer: 0.78 mg/L (≈ 0.961 µM)

Question: And the MIC (organism code VV)?
Answer: 0.1 mg/L (≈ 0.123 µM)

Question: What about the MIC (organism code WW) of the same compound?
Answer: 2 mg/L (≈ 2.46 µM)

Question: And the MIC (organism code XX)?
Answer: ≤ 0.004 mg/L

Question: And the MIC (organism code YY)?
Answer: ≤ 0.004 mg/L

Question: What about the MIC (organism code ZZ) of the same compound?
Answer: > 128 mg/L

Question: And the MIC (organism code ZZA)?
Answer: 0.25 mg/L (≈ 0.308 µM)

Question: For CCC1OC(=O)C(C)C(=O)C(C)C(OC2OC(C)CC(N(C)C)C2O)C(C)(OCC=Cc2cnc3c([N+](=O)[O-])cccc3c2)CC(C)C(=O)C(C)C2NC(=O)OC12C (centres unmarked) [Example 211, R is —CH2CH═CH-(8-nitro-3-quinolyl)], which MIC (organism code AA) is on record?
Answer: 0.05 mg/L (≈ 0.0617 µM)

Question: What about the MIC (organism code BB) of the same compound?
Answer: 0.05 mg/L (≈ 0.0617 µM)

Question: And the MIC (organism code CC)?
Answer: > 100 mg/L

Question: What about the MIC (organism code DD) of the same compound?
Answer: 0.1 mg/L (≈ 0.123 µM)

Question: And the MIC (organism code EE)?
Answer: 0.1 mg/L (≈ 0.123 µM)

Question: And the MIC (organism code FF)?
Answer: 0.1 mg/L (≈ 0.123 µM)

Question: And the MIC (organism code GG)?
Answer: > 100 mg/L

Question: And the MIC (organism code HH)?
Answer: 0.05 mg/L (≈ 0.0617 µM)

Question: And the MIC (organism code II)?
Answer: 0.01 mg/L (≈ 0.0123 µM)

Question: And the MIC (organism code JJ)?
Answer: 0.01 mg/L (≈ 0.0123 µM)

Question: And the MIC (organism code KK)?
Answer: 0.01 mg/L (≈ 0.0123 µM)

Question: And the MIC (organism code LL)?
Answer: 0.01 mg/L (≈ 0.0123 µM)

Question: And the MIC (organism code MM)?
Answer: 3.1 mg/L (≈ 3.82 µM)

Question: And the MIC (organism code NN)?
Answer: 0.1 mg/L (≈ 0.123 µM)

Question: What about the MIC (organism code OO) of the same compound?
Answer: 0.01 mg/L (≈ 0.0123 µM)

Question: What about the MIC (organism code PP) of the same compound?
Answer: 0.1 mg/L (≈ 0.123 µM)

Question: And the MIC (organism code QQ)?
Answer: 25 mg/L (≈ 30.8 µM)

Question: What about the MIC (organism code RR) of the same compound?
Answer: 0.2 mg/L (≈ 0.247 µM)

Question: What about the MIC (organism code SS) of the same compound?
Answer: 50 mg/L (≈ 61.7 µM)

Question: And the MIC (organism code TT)?
Answer: > 100 mg/L

Question: And the MIC (organism code UU)?
Answer: 0.39 mg/L (≈ 0.481 µM)

Question: What about the MIC (organism code VV) of the same compound?
Answer: 0.05 mg/L (≈ 0.0617 µM)

Question: What about the MIC (organism code WW) of the same compound?
Answer: 2 mg/L (≈ 2.47 µM)

Question: What about the MIC (organism code XX) of the same compound?
Answer: ≤ 0.004 mg/L

Question: What about the MIC (organism code YY) of the same compound?
Answer: ≤ 0.004 mg/L

Question: What about the MIC (organism code ZZ) of the same compound?
Answer: 16 mg/L (≈ 19.7 µM)

Question: What about the MIC (organism code ZZA) of the same compound?
Answer: 0.25 mg/L (≈ 0.308 µM)
